Reference: article PMC12090182, “Repurposing of the RIPK1-Selective Benzo[1,4]oxazepin-4-one Scaffold for the Development of a Type III LIMK1/2 Inhibitor” (ACS Chemical Biology, 2025)

Assays:
[1] = target: ABL2 (Homo sapiens, UniProt P42684); assay type: cell-based; details: HEK-293T; 1 μM inhibitor, HEK293T cells
Protocol: (§1) For plate preparation, a transfection mix was prepared in white 384-well small-volume plates (Greiner, cat. no. 784075) by preplating 3 μL of 20 μL/mL FuGene HD (Promega, cat. no. E2311), diluted in an Opti-MEM medium (Gibco, cat. no. 11058-021). One μL of DNA from both DNA vector source plates of the K192 kit was added using an Echo 550 acoustic dispenser (Beckman Coulter). The mix was incubated for 30 min, and 6 μL of HEK293T cells in an Opti-MEM medium was added. The proteins were allowed to express for 20 h. After expression, Tracer K10 was added using the concentrations recommended in the K192 technical manual and a 1 μM inhibitor was added to every second well. […] Five μL of substrate solution was added to every well, and filtered luminescence was measured on a PHERAstar plate reader (BMG Labtech) equipped with a luminescence filter pair (450 nm BP filter (donor) and a 610 nm LP filter (acceptor)). For every kinase, occupancy was calculated and plotted using GraphPad Prism 10 (Table S5).

[2] = target: BRSK2 (Homo sapiens, UniProt Q8IWQ3); assay type: cell-based; details: HEK-293T; 1 μM inhibitor, HEK293T cells
Protocol: as §1

[3] = target: CAMK1 (Homo sapiens, UniProt Q14012); assay type: cell-based; details: HEK-293T; 1 μM inhibitor, HEK293T cells
Chain of CAMK1 (Q14012 whole entry): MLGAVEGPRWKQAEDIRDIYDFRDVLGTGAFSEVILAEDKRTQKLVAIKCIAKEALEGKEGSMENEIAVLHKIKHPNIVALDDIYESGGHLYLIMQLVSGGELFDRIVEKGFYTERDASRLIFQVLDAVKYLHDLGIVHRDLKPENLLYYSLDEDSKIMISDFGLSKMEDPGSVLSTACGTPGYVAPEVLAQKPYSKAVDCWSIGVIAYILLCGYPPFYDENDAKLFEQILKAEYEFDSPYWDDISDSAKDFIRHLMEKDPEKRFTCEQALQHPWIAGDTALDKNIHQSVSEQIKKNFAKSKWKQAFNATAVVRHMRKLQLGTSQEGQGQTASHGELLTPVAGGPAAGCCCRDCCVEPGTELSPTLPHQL
Protocol: as §1

[4] = target: CDK4 (Homo sapiens, UniProt P11802); assay type: cell-based; details: HEK-293T; 1 μM inhibitor, HEK293T cells
Protocol: as §1

[5] = target: CDK5 (Homo sapiens, UniProt Q00535); assay type: cell-based; details: HEK-293T; 1 μM inhibitor, HEK293T cells
Protocol: as §1

[6] = target: CDKL1 (Homo sapiens, UniProt Q00532); assay type: cell-based; details: HEK-293T; 1 μM inhibitor, HEK293T cells
Protocol: as §1

[7] = target: CDKL3 (Homo sapiens, UniProt Q8IVW4); assay type: cell-based; details: HEK-293T; 1 μM inhibitor, HEK293T cells
Protocol: as §1

[8] = target: EPHA6 (Homo sapiens, UniProt Q9UF33); assay type: cell-based; details: HEK-293T; 1 μM inhibitor, HEK293T cells
Protocol: as §1

[9] = target: ERN2 (Homo sapiens, UniProt Q76MJ5); assay type: cell-based; details: HEK-293T; 1 μM inhibitor, HEK293T cells
Chain of ERN2 (Q76MJ5 35-926): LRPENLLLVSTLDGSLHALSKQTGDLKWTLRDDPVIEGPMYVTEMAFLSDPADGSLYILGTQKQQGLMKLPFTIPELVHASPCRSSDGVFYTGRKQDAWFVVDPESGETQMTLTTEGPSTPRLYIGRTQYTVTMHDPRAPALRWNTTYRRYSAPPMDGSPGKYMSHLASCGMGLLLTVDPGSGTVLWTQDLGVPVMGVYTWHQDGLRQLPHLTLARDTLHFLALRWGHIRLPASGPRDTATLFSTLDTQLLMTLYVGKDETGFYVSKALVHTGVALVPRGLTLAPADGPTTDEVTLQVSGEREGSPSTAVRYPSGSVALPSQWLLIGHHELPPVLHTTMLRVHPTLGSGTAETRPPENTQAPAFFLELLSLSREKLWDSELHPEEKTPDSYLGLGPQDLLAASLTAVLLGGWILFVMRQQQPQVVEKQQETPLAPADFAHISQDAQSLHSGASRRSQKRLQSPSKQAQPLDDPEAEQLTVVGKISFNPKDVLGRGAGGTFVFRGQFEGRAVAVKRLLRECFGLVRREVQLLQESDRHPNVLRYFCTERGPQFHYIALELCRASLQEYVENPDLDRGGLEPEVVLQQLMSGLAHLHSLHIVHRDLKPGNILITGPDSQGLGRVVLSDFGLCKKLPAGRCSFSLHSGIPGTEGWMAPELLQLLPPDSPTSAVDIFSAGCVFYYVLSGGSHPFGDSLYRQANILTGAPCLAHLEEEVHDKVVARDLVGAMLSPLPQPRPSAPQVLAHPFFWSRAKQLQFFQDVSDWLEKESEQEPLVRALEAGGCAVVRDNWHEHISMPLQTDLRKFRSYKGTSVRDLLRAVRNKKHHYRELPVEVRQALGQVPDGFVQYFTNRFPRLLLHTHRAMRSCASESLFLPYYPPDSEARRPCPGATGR
Protocol: as §1

[10] = target: HIPK3 (Homo sapiens, UniProt Q9H422); assay type: cell-based; details: HEK-293T; 1 μM inhibitor, HEK293T cells
Protocol: as §1

[11] = target: IGF1R (Homo sapiens, UniProt P08069); assay type: cell-based; details: HEK-293T; 1 μM inhibitor, HEK293T cells
Protocol: as §1

[12] = target: JNK3 (Homo sapiens, UniProt P53779); assay type: cell-based; details: HEK-293T; 1 μM inhibitor, HEK293T cells
Chain of JNK3 (P53779 whole entry): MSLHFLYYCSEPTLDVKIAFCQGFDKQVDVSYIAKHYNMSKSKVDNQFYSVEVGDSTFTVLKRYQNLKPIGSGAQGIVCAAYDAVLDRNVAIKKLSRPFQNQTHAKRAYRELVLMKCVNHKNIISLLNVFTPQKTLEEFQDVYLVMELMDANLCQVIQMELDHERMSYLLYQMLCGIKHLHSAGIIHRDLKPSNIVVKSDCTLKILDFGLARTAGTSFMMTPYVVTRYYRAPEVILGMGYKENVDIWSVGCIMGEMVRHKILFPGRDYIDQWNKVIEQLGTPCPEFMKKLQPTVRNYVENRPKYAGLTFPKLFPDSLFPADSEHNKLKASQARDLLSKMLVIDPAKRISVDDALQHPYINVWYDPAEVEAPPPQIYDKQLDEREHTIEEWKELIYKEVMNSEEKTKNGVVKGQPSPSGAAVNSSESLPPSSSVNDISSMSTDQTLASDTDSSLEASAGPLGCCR
Protocol: as §1

[13] = target: LATS2 (Homo sapiens, UniProt Q9NRM7); assay type: cell-based; details: HEK-293T; 1 μM inhibitor, HEK293T cells
Protocol: as §1

[14] = target: LCK (Homo sapiens, UniProt P06239); assay type: cell-based; details: HEK-293T; 1 μM inhibitor, HEK293T cells
Chain of LCK (P06239 whole entry): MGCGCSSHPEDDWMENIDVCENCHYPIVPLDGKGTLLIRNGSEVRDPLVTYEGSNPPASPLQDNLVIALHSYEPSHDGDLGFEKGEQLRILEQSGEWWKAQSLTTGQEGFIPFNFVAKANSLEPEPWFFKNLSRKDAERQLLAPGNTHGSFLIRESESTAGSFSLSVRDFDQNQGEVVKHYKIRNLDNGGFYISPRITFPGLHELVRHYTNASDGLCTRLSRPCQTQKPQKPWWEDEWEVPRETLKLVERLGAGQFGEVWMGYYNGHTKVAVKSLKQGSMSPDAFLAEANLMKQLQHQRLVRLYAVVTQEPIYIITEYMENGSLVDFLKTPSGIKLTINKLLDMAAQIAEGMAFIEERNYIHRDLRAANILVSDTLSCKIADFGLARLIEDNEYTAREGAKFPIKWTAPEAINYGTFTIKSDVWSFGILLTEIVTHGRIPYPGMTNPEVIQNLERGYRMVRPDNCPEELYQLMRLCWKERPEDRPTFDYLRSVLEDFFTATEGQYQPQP
Protocol: as §1

[15] = target: LTK (Homo sapiens, UniProt P29376); assay type: cell-based; details: 1 μM inhibitor, HEK293T cells
Protocol: as §1

[16] = target: MAP3K10 (Homo sapiens, UniProt Q02779); assay type: cell-based; details: HEK-293T; 1 μM inhibitor, HEK293T cells
Protocol: as §1

[17] = target: MAP3K11 (Homo sapiens, UniProt Q16584); assay type: cell-based; details: HEK-293T; 1 μM inhibitor, HEK293T cells
Protocol: as §1

[18] = target: MAP3K2 (Homo sapiens, UniProt Q9Y2U5); assay type: cell-based; details: HEK-293T; 1 μM inhibitor, HEK293T cells
Protocol: as §1

[19] = target: MAP3K21 (Homo sapiens, UniProt Q5TCX8); assay type: cell-based; details: HEK-293T; 1 μM inhibitor, HEK293T cells
Protocol: as §1

[20] = target: MAP3K4 (Homo sapiens, UniProt Q9Y6R4); assay type: cell-based; details: HEK-293T; 1 μM inhibitor, HEK293T cells
Protocol: as §1

[21] = target: MAP4K1 (Homo sapiens, UniProt Q92918); assay type: cell-based; details: HEK-293T; 1 μM inhibitor, HEK293T cells
Protocol: as §1

[22] = target: MAP4K5 (Homo sapiens, UniProt Q9Y4K4); assay type: cell-based; details: HEK-293T; 1 μM inhibitor, HEK293T cells
Chain of MAP4K5 (Q9Y4K4 whole entry): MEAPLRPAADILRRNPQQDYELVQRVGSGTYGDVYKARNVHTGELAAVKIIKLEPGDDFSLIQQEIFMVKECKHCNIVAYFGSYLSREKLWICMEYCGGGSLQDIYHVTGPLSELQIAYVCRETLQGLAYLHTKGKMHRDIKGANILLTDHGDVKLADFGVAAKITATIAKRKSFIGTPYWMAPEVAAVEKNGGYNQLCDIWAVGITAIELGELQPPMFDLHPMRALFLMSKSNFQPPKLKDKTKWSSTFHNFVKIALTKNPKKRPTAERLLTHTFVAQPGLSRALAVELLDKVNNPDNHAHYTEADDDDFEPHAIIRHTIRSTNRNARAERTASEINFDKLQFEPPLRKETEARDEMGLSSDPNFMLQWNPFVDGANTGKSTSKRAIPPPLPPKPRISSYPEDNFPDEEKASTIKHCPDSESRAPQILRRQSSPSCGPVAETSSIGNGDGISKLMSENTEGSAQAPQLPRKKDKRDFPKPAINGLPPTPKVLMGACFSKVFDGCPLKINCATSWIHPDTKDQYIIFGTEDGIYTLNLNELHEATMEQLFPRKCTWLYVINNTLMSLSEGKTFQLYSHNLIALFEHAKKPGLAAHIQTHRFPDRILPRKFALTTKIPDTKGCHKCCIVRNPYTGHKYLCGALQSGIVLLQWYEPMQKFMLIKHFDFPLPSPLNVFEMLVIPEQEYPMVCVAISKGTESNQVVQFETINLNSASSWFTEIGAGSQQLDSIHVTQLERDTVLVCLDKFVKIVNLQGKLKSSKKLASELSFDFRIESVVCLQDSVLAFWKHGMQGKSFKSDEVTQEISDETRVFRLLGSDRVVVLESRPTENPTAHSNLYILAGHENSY
Protocol: as §1

[23] = target: MAPK4 (Homo sapiens, UniProt P31152); assay type: cell-based; details: HEK-293T; 1 μM inhibitor, HEK293T cells
Protocol: as §1

[24] = target: NEK9 (Homo sapiens, UniProt Q8TD19); assay type: cell-based; details: HEK-293T; 1 μM inhibitor, HEK293T cells
Protocol: as §1

[25] = target: NLK (Homo sapiens, UniProt Q9UBE8); assay type: cell-based; details: HEK-293T; 1 μM inhibitor, HEK293T cells
Chain of NLK (Q9UBE8 whole entry): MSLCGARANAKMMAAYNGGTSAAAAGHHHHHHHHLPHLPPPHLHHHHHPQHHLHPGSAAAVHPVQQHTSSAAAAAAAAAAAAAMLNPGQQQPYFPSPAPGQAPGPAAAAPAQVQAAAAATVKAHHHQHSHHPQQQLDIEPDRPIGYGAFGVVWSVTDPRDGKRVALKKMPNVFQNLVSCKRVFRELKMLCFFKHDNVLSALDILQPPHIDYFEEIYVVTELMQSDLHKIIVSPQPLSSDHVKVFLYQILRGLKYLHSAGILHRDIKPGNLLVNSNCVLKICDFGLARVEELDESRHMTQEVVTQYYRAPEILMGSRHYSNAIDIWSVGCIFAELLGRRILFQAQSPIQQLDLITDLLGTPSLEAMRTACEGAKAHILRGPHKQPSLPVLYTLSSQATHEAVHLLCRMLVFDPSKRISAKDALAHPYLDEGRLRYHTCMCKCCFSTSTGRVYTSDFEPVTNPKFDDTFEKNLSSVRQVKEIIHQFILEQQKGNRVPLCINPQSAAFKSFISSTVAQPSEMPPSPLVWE
Protocol: as §1

[26] = target: PKMYT1 (Homo sapiens, UniProt Q99640); assay type: cell-based; details: HEK-293T; 1 μM inhibitor, HEK293T cells
Protocol: as §1

[27] = target: PLK4 (Homo sapiens, UniProt O00444); assay type: cell-based; details: HEK-293T; 1 μM inhibitor, HEK293T cells
Chain of PLK4 (O00444 whole entry): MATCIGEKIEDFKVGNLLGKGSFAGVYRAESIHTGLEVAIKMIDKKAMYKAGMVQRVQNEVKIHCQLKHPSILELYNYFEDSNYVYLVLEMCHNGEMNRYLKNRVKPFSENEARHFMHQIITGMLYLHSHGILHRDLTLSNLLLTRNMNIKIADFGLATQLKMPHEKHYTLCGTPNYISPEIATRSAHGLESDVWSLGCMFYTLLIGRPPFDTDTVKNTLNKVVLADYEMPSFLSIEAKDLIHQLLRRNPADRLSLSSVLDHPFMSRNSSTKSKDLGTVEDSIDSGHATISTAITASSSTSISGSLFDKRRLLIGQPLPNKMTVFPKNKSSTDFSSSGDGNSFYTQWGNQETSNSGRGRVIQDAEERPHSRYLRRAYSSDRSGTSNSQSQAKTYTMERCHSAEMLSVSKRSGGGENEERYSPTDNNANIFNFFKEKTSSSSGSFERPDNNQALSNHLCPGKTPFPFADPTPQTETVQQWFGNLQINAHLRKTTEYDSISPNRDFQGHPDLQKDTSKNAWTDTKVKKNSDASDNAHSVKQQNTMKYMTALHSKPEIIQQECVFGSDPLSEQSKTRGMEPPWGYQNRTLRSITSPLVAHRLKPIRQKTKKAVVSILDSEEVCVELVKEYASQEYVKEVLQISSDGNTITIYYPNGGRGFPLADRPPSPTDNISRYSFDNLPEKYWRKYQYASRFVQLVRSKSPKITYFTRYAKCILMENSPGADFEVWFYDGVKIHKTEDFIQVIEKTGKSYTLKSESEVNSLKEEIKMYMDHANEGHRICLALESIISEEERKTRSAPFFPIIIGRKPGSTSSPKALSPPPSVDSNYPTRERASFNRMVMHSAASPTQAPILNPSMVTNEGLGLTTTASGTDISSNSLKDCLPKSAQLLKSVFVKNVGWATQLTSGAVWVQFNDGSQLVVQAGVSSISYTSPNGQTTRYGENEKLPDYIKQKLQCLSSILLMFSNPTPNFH
Protocol: as §1

[28] = target: PTK2B (Homo sapiens, UniProt Q14289); assay type: cell-based; details: HEK-293T; 1 μM inhibitor, HEK293T cells
Protocol: as §1

[29] = target: RPS6KA2 (Homo sapiens, UniProt Q15349); assay type: cell-based; details: HEK-293T; 1 μM inhibitor, HEK293T cells
Protocol: as §1

[30] = target: TNK1 (Homo sapiens, UniProt Q13470); assay type: cell-based; details: HEK-293T; 1 μM inhibitor, HEK293T cells
Protocol: as §1

[31] = target: WEE1 (Homo sapiens, UniProt P30291); assay type: cell-based; details: HEK-293T; 1 μM inhibitor, HEK293T cells
Protocol: as §1

[32] = target: FLT3(D835Y) (Homo sapiens, UniProt P36888, D835Y); test: biochemical; assay type: binding; details: 1000 nM, read-out: Percent Control
[33] = target: PIK3CA(H1047L) (Homo sapiens, UniProt P42336, H1047L); test: biochemical; assay type: binding; details: read-out: Percent Control
[34] = target: EGFR(T790M) (Homo sapiens, UniProt P00533, T790M); test: biochemical; assay type: binding; details: 1000 nM, read-out: Percent Control
[35] = target: EGFR(L747-S752del, P753S) (Homo sapiens, UniProt P00533, DEL747-752/P753S); test: biochemical; assay type: binding; details: compound concentration 100 nM; Entrez EGFR; read-out: Percent Control
Chain of EGFR(L747-S752del, P753S) (P00533 other isoform, or with tags, fused parts or gaps DEL747-752/P753S): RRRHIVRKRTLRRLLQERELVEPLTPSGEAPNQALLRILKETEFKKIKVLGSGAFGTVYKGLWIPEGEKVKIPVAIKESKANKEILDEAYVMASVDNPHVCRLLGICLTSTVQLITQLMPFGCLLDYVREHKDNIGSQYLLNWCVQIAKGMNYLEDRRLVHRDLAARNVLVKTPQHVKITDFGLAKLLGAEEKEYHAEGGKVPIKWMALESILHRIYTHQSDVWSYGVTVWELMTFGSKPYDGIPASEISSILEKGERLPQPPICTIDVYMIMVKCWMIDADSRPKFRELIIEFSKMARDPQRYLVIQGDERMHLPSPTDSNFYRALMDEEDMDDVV

CN1C(=O)[C@@H](N2CCc3c(nn(Cc4ccccc4)c3C(N)=O)C2=O)COc2cc(Cl)ccc21 [Compound 10, (S)-2-benzyl-6-(8-chloro-5-methyl-4-oxo-2,3,4,5-tetrahydrobenzo[b][1,4]oxazepin-3-yl)-7-oxo-4,5,6,7-tetrahydro-2H-pyrazolo[3,4-c]pyridine-3-carboxamide]
receptor occupancy at 1 µM [1]: 6.33% | receptor occupancy at 1 µM [2]: 2.53% | receptor occupancy at 1 µM [3]: 2.97% | receptor occupancy at 1 µM [4]: -9.98% | receptor occupancy at 1 µM [5]: -9.43% | receptor occupancy at 1 µM [6]: 12.6% | receptor occupancy at 1 µM [7]: 4.18% | receptor occupancy at 1 µM [8]: -0.834% | receptor occupancy at 1 µM [9]: -5.4% | receptor occupancy at 1 µM [10]: 11.8% | receptor occupancy at 1 µM [11]: -7.01% | receptor occupancy at 1 µM [12]: 3.53% | receptor occupancy at 1 µM [13]: 8.35% | receptor occupancy at 1 µM [14]: -0.25% | receptor occupancy at 1 µM [15]: -4.01% | receptor occupancy at 1 µM [16]: 3.06% | receptor occupancy at 1 µM [17]: -27.3% | receptor occupancy at 1 µM [18]: -2.55% | receptor occupancy at 1 µM [19]: -2.72% | receptor occupancy at 1 µM [20]: 5.69% | receptor occupancy at 1 µM [21]: 3.49% | receptor occupancy at 1 µM [22]: 16.7% | receptor occupancy at 1 µM [23]: -10.7% | receptor occupancy at 1 µM [24]: 3.71% | receptor occupancy at 1 µM [25]: 5.94% | receptor occupancy at 1 µM [26]: -7.45% | receptor occupancy at 1 µM [27]: 10.7% | receptor occupancy at 1 µM [28]: -1.12% | receptor occupancy at 1 µM [29]: -4.28% | receptor occupancy at 1 µM [30]: -2.13% | receptor occupancy at 1 µM [31]: -7.33% | remaining activity at 1 µM [32]: 94% | remaining activity at 1 µM [33]: 99% | remaining activity at 1 µM [34]: 100% | remaining activity at 0.1 µM [35]: 97%
